Test [1] deals with mouse prostate. The test can be described thus: Mouse study, 5 days oral, prostate weight and histomorphology. The following applies: C57B1/6J mice. The test is classed as in vivo. As to the method:
The effect of Compound 1 on the mouse prostate was determined as follows. Compound 1 was orally administered daily for 5 days to male, C57B1/6J mice, (n=5, 6-8 weeks old) 1 at 2, 5, and 20 mg/kg (as a 1% carboxymethylcellulose formulation). The control mice received an equal amount of the vehicle (carboxymethylcellulose). On day 6 the mice were sacrificed and the entire prostate and the individual lobes (e.g., the dorsal lobe and the ventral lobe) were weighed to measure absolute weights. Relative weights of prostate and individual lobes were calculated by dividing the absolute weight by the total weight of the mouse. Relative weights of the entire prostate, the dorsal prostate, and the ventral prostate were calculated by dividing the absolute weight by the total weight of the mouse. Both the absolute entire prostate and relative entire prostate weights reduced in the 5 and 20 mg/kg groups compared to the control group. The histomorphology of the prostate was also analyzed and compared to that of the control or untreated prostate as illustrated in FIGS. 1-3, showing […].

Test [2] has as its system PC3 cells. The test can be described thus: Antiproliferation assay 3 days, PC3 cells. The test is classed as cell-based, human. The conditions noted are these: 3 day treatment; read-out: PC-3 cell line IC50. On the procedure:
(§1) To determine the effect of lonidamine analogs thereof on cell proliferation, the antiproliferative activity of these compounds was tested in a multi-well Alamar Blue based assay (at 3 days). Cell growth in the presence and absence of the test compound was compared, as measured by a fluoresence plate reader at excitation 550 nm and emission 590 nm (see Biosource International Inc., Tech Application Notes, Use of Alamar Blue in the measurement of Cell Viability and Toxity, Determining IC50). The following cell lines were tested: PWR-1E cells ((ATCC CRL-11611), 3500 cells/well/200 μl in Keratinocyte SFM medium (Gibco Products, Invitrogen Corporation, Carlsbad, Calif.)); DU-145 cells ((ATCC HTB-81), 4000 cells/well/200 μl in MEM Eagles medium (ATCC, Manassas, Va.)); PC3 cells ((ATCC CRL-1435), 4000 cells/200 μl in Modified HAM's F12 medium (ATCC, Manassas, Va.)); PNt2 cells ((Sigma-Aldrich, 95012613-1 VL), 4000 cells/well/200 μl in RPMI medium (Gibco Products, Invitrogen Corporation, Carlsbad, Calif.), BPH-1 ((DSMZ ACC-143), 4000 cells/well/200 μl in RPMI medium (Gibco Products, Invitrogen Corporation, Carlsbad, Calif), and NCI-H460 cells ((ATCC HTB-177), 4000 cells/well/200 μl in RPMI medium (Gibco Products, Invitrogen Corporation, Carlsbad, Calif.)). The cells were seeded in a 96 well plate in a medium specified above. After 24 hours, these plates were divided into 2 groups—Control group and 3 day treatment group. A test compound was added to each plate in the treatment groups at concentrations of […] as tabulated in Table 1 (in 2 μl 1 of 100% DMSO, final DMSO concentration 1% in all wells). For NCI-H460 cells, test compounds were added to each plate in the treatment groups at concentrations of 600, 300, 100, 30, 10, 3, and 1 μM (in 2 μl of 100% DMSO, final DMSO concentration 1% in all wells). The cells in the 3 day treatment group were incubated for 3 days, followed by staining with AlamarBlue. In the Control group, AlamarBlue was added to the plate at (i) day 0 and (ii) day 3 and measured to establish the control reading. […] For the NCI-H460 cells, the capacity of the cells to proliferate was measured 5 hours after addition of AlamarBlue using the same fluorescence plate reader as stated above.

The test system of test [3] is PWR-1E cells. Briefly: Antiproliferation assay 3 days, PWR-1E cells (Example 49). Type of test: cell-based. The following applies: 3 day treatment; read-out: PWR1e cell line IC50. On the procedure:
as §1

The subject of test [4] is DU-145 cells. The test can be described thus: Antiproliferation assay 3 days, DU-145 cells. The following applies: 3 day treatment; read-out: Du-145 cell line IC50. The test is classed as cell-based. On the procedure: as §1
The test system of test [5] is LNCaP cells. Briefly: Cell cycle analysis. Type of test: cell-based, human. The following applies: for % G0/G / % G2/M / % S: 24 h. On the procedure:
The effect of compound 1 (as described in Example 1 above) on the cell cycle was determined as follows. LNCaP cells (2×10^5 cells/ml/well) were seeded in a 24 well plate. The culture media were removed after 24 h, the cells were trypsinized and centrifuged. The cell pellets were resuspended in 100 μl PBS buffer, after which 300 μl of ice-cold ethanol (96%) added dropwise, and the cells were incubated at 4° C. for at least 24 hr. The cells were centrifuged and the supernatant was discarded. The cell cycle staining reagent (Guava Technologies, Hayward, Calif., USA, 200 μl) was added to each well. The cells were shielded from light and incubated at room temperature for 30 min. The samples were analyzed (Guava PCA-96 instrument, Cytosoft software, Guava Technologies, 25801 Industrial Boulevard, Hayward Calif. 94545-2991, USA) as tabulated below.

[6] abbreviates: oral daily for 5 days, 5 and 20 mg/kg groups vs control.

Each structure is given as a SMILES string.

With `O=C(NO)c1nn(Cc2ccc(Cl)cc2Cl)c2ccccc12` [Compound 1], in test [1] (oral daily for 5 days, 2, 5, 20 mg/kg), the “histomorphology of the prostate” value is listed as “dose-dependent disorganization of the epithelial cells”. Further, the “absolute entire prostate weight” value in test [1] (setting [6]) was “reduced”. Further, in test [1] (setting [6]), the “relative entire prostate weight” value is “reduced”. Also, the IC50 worked out at 15 µM in test [2], 5.3 µM in test [3] and 11 µM in test [4]. In test [5] (2.5-200 μM), the “effect on the cell cycle” value is “does not have a measurable effect”. Further, the “% G0/G” value in test [5] (2.5 μM) is on record as 59%; in test [5] (7.4 μM), 56%; in test [5] (22.2 μM) it was 57%; in test [5] (66.7 μM), 51%; in test [5] (200 μM) it was 41%. Besides, the “% G2/M” value was 27% in test [5] (2.5 μM); 26% in test [5] (7.4 μM); 25% in test [5] (22.2 μM); 24% in test [5] (66.7 μM); 17% in test [5] (200 μM). The “% S” value worked out at 11% in test [5] (2.5 μM); 15% in test [5] (7.4 μM); 11% in test [5] (22.2 μM); 19% in test [5] (66.7 μM); 18% in test [5] (200 μM).

(Values after US20070015771A1, “Lonidamine analogs” (Threshold pharmaceuticals, Inc., priority 2004, published 2007).)
